Read-outs that look alike come from different tables or passages of the source.
Columns and labels:
[1] = test system: HCMV Strain AD169; assay: Viral qPCR assay, HCMV in MRC-5 cells; assay type: cell-based, Human cytomegalovirus; conditions: read-out: CMV MRC5 Cell (EC50)
Method: (§1) MRCS cells, Vero cells, and MeWo cells were obtained from ATCC and were maintained at 37° C./5% CO2/90% relative humidity in Minimal Essential Medium with 10% fetal bovine serum, […] L-glutamine, 100 units/ml penicillin and 100 ug/ml streptomycin. Assay plates were prepared by dispensing compounds dissolved in DMSO into wells of 384 well collagen-coated plates using an ECHO acoustic dispenser. Each compound was tested in a 10-point, serial 3-fold dilution. Controls included uninfected cells and infected cells treated only with DMSO. Assays were initiated by mixing selected cells, in suspension, with virus, and dispensing 50 μl/well infected cells to pre-plated compounds. Plates were incubated at 37° C./5% CO2/90% relative humidity for ˜72 hrs to permit genomic replication, and infected cells were lysed by the addition of an equal volume of lysis buffer (10 mM Tris-HCl, pH8, 50 mM KCl, 2 mM MgCl2, 0.45% NP-40, 0.45% Tween-20, and 100 μg/ml proteinase K). An aliquot of the lysate was transferred to a 384-well PCR plate and incubated at 56° C. for 1 hour and then at 95° C. for 10 min. Levels of a viral gene and of the cellular control, PPIA (Thermo Fisher Assay ID=Hs04194521_s1), were measured in separate 10 μL qPCR assays using TaqMan® Gene Expression Master Mix (Applied Biosystems), and an 7900HT Fast Real-Time PCR System with 384-Well Block Module. 7-point, serial 10-fold dilutions of a plasmid standard were run on each plate to generate a standard curve, and genome copies numbers were calculated by plotting experimental Ct onto linear regression of the standard curve. Viral genome copy numbers were normalized by cellular control copy number, and compound effects were normalized to the window defined by the controls. Calculated % effects were fit using a 4-parameter algorithm, and EC50 was reported.
as §1, with “gene” for “gene and of the cellular control, PPIA (Thermo Fisher Assay ID=Hs04194521_s1),”, “in” for “in separate”, “Compound effects on viral” for “Viral”, “number” for “numbers were normalized by cellular control copy number, and compound effects”
HCMV: Strain AD169 Street was assayed in MRC-5 cells and was used at 0.05-0.1 pfu/cell. The assays were performed in either growth media or in the same media with 50% fetal bovine serum. Primer-probe set was Thermo Fisher Assay ID=AIFATFK.

[2] = test system: VZV; assay: Viral qPCR assay, VZV in MRC5 cells; assay type: cell-based, varicella zoster virus; conditions: read-out: VZV MRC5 Cell (IC50)
Method: as §1
as §1, with “gene” for “gene and of the cellular control, PPIA (Thermo Fisher Assay ID=Hs04194521_s1),”, “in” for “in separate”, “Compound effects on viral” for “Viral”, “number” for “numbers were normalized by cellular control copy number, and compound effects”
(§2) VZV: Strain Street was maintained as an infected cell stock in MRC-5 cells. It was assayed in MeWo or MRCS cells and was used at 0.04-0.1 pfu/cell. The assays were performed in growth medium. Primer-probe set was Thermo Fisher Assay ID=AIPAEXQ. HSV-1: Strain F Street was assayed in Vero or MRCS cells and was used at 0.0005-0.004 pfu/cell in growth medium. Primer-probe set was Thermo Fisher Assay ID=AIBJZIB

[3] = biological target: T1, Human cytomegalovirus DNA polymerase (Human cytomegalovirus, UniProt P08546); assay: HCMV polymerase assay (AlphaLISA); assay type: biochemical; conditions: HCMV DNA polymerase 0.2 nM, 60 minutes at 37° C.; read-out: CMV (IC50)
T1 construct: made in house; host or cells: SF21 insect cells (baculovirus vector)
T1 sequence (P08546 whole entry): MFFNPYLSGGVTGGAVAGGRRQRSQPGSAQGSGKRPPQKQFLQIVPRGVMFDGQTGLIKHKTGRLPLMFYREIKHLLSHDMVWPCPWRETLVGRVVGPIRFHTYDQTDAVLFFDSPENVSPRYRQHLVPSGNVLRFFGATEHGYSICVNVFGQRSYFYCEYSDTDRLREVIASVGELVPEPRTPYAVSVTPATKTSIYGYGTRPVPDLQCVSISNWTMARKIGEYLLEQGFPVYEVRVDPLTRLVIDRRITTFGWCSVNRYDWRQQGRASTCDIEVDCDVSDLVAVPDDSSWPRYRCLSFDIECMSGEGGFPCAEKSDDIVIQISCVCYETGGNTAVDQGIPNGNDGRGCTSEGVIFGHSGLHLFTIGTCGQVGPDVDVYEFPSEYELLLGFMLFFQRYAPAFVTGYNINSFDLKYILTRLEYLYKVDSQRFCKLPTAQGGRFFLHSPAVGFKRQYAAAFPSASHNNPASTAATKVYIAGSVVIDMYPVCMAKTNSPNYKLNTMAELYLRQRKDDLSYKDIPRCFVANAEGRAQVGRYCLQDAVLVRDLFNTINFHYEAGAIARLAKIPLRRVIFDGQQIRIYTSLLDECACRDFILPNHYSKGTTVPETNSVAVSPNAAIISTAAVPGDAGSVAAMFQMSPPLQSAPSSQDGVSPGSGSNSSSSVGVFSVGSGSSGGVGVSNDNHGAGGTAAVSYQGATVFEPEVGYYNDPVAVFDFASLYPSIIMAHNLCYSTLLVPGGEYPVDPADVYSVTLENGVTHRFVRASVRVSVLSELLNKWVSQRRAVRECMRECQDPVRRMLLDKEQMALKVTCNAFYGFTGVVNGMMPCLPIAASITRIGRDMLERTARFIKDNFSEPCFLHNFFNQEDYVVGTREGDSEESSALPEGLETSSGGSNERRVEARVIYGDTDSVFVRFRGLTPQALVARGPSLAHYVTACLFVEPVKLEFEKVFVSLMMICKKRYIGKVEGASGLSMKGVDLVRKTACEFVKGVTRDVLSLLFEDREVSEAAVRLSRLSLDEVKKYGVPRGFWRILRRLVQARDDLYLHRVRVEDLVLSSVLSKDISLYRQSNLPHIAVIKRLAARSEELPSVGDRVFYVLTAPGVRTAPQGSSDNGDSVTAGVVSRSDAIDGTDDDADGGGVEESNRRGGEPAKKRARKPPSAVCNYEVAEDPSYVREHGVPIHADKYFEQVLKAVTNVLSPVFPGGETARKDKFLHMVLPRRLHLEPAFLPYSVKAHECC
Method: Human cytomegalovirus and varicella zoster virus DNA polymerases were expressed via baculovirus vector in SF21 cells and purified. Heterodimeric nucleic acid substrate used in the herpesvirus polymerase reactions was generated by annealing a 59-mer template to a 17-mer digoxigenin-labeled primer. Polymerase (HCMV final concentration of 0.2 nM; VZV final concentration of 0.4 nM) was combined with an inhibitor compound or DMSO in assay buffer (10 mM HEPES, pH 7.5, 25 mM KCl, 25 mM NaCl, 5 mM MgCl2, 5% glycerol, 0.67 mg/ml bovine serum albuminutes, and 1 mM tris(2-carboxyethyl)phosphine), and this mixture was pre-incubated for 30 minutes at room temperature in 384-well microtiter plates. The polymerization reaction was initiated by the addition of template/primer substrate (final concentration: 1.6 nM), and dNTPs (final concentration: 24 nM dCTP, 24 nMdGTP, 16 nM dATP, 16 nM dTTP, and 0.8 nM biotin-dUTP). After 60 minutes incubation at 37° C., reactions were terminated with quench buffer (25 mM HEPES pH 7.5, 100 mM NaCl, 0.25% Tween-20, 12 mM EDTA, and 1 mg/ml bovine serum albumin). Incorporation of biotinylated UTP was detected with 2.5-ug/ml anti-DIG AlphaLISA acceptor beads and 5-10 ug/ml streptavidin AlphaLISA donor beads (Perkin Elmer). Compound effects were normalized to the window defined by the controls (DMSO only and pre-quenched wells) and were fit using a 4-parameter algorithm to report an IC50.

[4] = test system: HSV-1 Strain F; assay: Viral qPCR assay, HSV-1 in MRC5 cells; assay type: cell-based, Herpes Simplex Virus type 1; conditions: read-out: HSV1 MRC5 Cell (EC50)
Method: as §1
as §1, with “gene” for “gene and of the cellular control, PPIA (Thermo Fisher Assay ID=Hs04194521_s1),”, “in” for “in separate”, “Compound effects on viral” for “Viral”, “number” for “numbers were normalized by cellular control copy number, and compound effects”
as §2

[5] = test system: HSV2; assay: Viral qPCR assay, HSV2 in MRC5 cells; assay type: cell-based, Herpes Simplex Virus type 2; conditions: read-out: HSV2 MRC5 Cell (EC50)
Method: as §1
as §1, with “gene” for “gene and of the cellular control, PPIA (Thermo Fisher Assay ID=Hs04194521_s1),”, “in” for “in separate”, “Compound effects on viral” for “Viral”, “number” for “numbers were normalized by cellular control copy number, and compound effects”

[6] = Human betaherpesvirus 5, AD169, MRC5, 72 h
[7] = Human alphaherpesvirus 3, MRC5, 72 h
[8] = Human alphaherpesvirus 1, MRC5, 72 h
[9] = Human alphaherpesvirus 2, MRC5, 72 h

Structure (SMILES) | EC50 [1, 6] [nM] | IC50 [2, 7] [nM] | IC50 [3] [nM] | EC50 [4, 8] [nM] | EC50 [5, 9] [nM] | EC50 ([1]; MRC5 cells, ~72 hrs) [nM] | IC50 ([2]; ~72 hrs) [nM] | EC50 ([4]; ~72 hrs) [nM] | EC50 ([5]; ~72 hrs) [nM]
O=C1CC[C@H](CN2Cc3c(C(=O)NCc4ccc(Cl)cc4)nn(-c4nccs4)c3C2)N1 [Compound 7] | 142 | 190 | 9.82 | 118 | 86.6 | – | – | – | –
CCC(C1CCC(=O)N1)N1Cc2c(C(=O)NCc3ccc(Cl)cc3)nn(C)c2C1 (centres unmarked) [Compound 90] | – | – | 31.7 | – | – | 212 | 1230 | 1320 | 1180
Cn1nc(C(=O)NCc2ccc(Cl)cc2)c2c1C1(CCC1)N(C[C@H]1CCC(=O)N1)C2 [Compound 124] | – | – | 141 | – | – | 581 | 2160 | 3360 | 2350
CCOc1cnc(-n2nc(C(=O)NCc3ccc(Cl)cc3)c3c2CN(C[C@H]2CCC(=O)N2)C3)nc1 [Compound 16] | 298 | 208 | 31.2 | 233 | 74.5 | – | – | – | –
O=C1CC[C@H](CN2Cc3c(C(=O)NCc4ccc(Cl)cc4)nn(C4CCOC4)c3C2)N1 (single isomer, unassigned) [Compound 34] | – | – | 51.6 | – | – | 1800 | 2050 | 790 | 1850
O=C1CC[C@H](CN2Cc3c(C(=O)NCc4ccc(Cl)cc4)nn(C4CCOC4)c3C2)N1 (single isomer, unassigned) [Compound 33] | – | – | 52.5 | – | – | 628 | 1960 | 1560 | 1410
O=C1CC[C@@H](CN2Cc3c(C(=O)NCc4ccc(Cl)cc4)nn(-c4ncccn4)c3C2)N1 [Compound 31] | 435 | 1470 | 26.9 | 1040 | 1410 | – | – | – | –
Cn1nc(C(=O)NCc2ccc(Cl)cc2)c2c1CN(CC13CC1CC(=O)N3)C2 (centres unmarked) [Compound 95] | 632 | 4550 | 127 | 3300 | 3720 | – | – | – | –
O=C1CC[C@H](CN2Cc3c(C(=O)NCc4ccc(Cl)cc4)nn(-c4ncco4)c3C2)N1 [Compound 23] | 130 | 325 | 17.2 | 224 | 136 | – | – | – | –
Cn1nc(C(=O)NCc2ccc(Cl)cc2)c2c1CN(C[C@@H]1CC(F)(F)C(=O)N1)C2 [Compound 82] | 250 | 1450 | 60.3 | 2880 | 1020 | – | – | – | –
CC(=O)OCC1c2c(c(C(=O)NCc3ccc(Cl)cc3)nn2C)CN1CC1CCC(=O)N1 (single isomer, unassigned) [Compound 120] | – | – | 121 | – | – | 642 | 1780 | 2740 | 2020
O=C1N[C@@H](CN2Cc3c(C(=O)NCc4ccc(Cl)cc4)nn(C(F)F)c3C2)CO1 [Compound 99] | 60.5 | 53.1 | 5.07 | 79.5 | 43.2 | – | – | – | –
CCC1c2c(c(C(=O)NCc3ccc(Cl)cc3)nn2C)CN1C[C@H]1CCC(=O)N1 (single isomer, unassigned) [Compound 105] | – | – | 23 | – | – | 479 | 289 | 335 | 274
O=C1CC[C@H](CN2Cc3c(C(=O)NCc4ccc(Cl)cc4)nn(-c4ccccn4)c3C2)N1 [Compound 13] | 547 | 207 | 25.8 | 284 | 74.6 | – | – | – | –
O=C1CC[C@@H](CN2Cc3c(C(=O)NCc4ccc(Cl)cc4)nn(C4CCOC4)c3C2)N1 (single isomer, unassigned) [Compound 43] | – | 2640 | 58.2 | 3550 | 3490 | 3290 | – | – | –
O=C1CC[C@H](CN2Cc3c(C(=O)NCc4ccc(Cl)cc4)nn(-c4ncc5cnccn45)c3C2)N1 [Compound 8] | – | – | 18.5 | – | – | 678 | 479 | 299 | 226
